According to patent EP4011353A1 (Beiersdorf AG, priority 2020, dated 2022):

Key:
Assay type in all cases: physicochemical
[1] = degradation of ascorbic acid after addition of water or ethanol to the eutectic liquid; details: addition of water or ethanol up to 15%, preferably up to 10%
Excerpt: This liquid, stable at room temperature, can be incorporated into cosmetic formulas.

[2] = degradation of vitamin C at 40°C over 16 weeks, eutectic solvent compared to water (figure 1); details: 5 % vitamin C in eutectic solvent (5% vitamin C, 40% betaine, 55% glycerol) compared to water, 40 degrees
[3] = color stability of vitamin C in closed and open glass flasks after 3 months at room temperature (figure 2)

- degradation of the ascorbic acid [1]: without increased degradation
- degradation of vitamin C [2]: enhanced protection
- stability of vitamin C ([3]; 21% vitamin C in water, closed bottles): unstable
- stability of vitamin C ([3]; 21% vitamin C in water, opened glass bottles): unstable
- stability of vitamin C ([3]; in betaine and glycerol (21% vitamin C, 29% betaine, 50% glycerin), closed bottles): stable
Compound: O=C1O[C@H]([C@@H](O)CO)C(O)=C1O [vitamin C, ascorbic acid]
